Results taken from EP0069811A1, “Branched amides of L-aspartyl-D-amino acid dipeptides and compositions thereof” (PFIZER INC., priority 1981, dated 1983).
Where a SMILES comes first, the peptide text is derived from it. [ ]: non-standard residue; d: D form. The star is where a group is joined. OiPr = CC(C)O*; NHBu = CCCCN*

Key:
[1] = cited from earlier work; for Sweetness potency: prior-art values
[2] = test system: expert taste panel; experiment: Sweetness potency by comparison of gustatory sweetness with a sucrose standard (expert taste panel); format: in vivo; details: aqueous solutions compared with aqueous sucrose solutions of 7-9% by an expert taste panel
Experimental: The sweetness potency of the instant compounds was determined by comparison of their gustatory sweetnesses with sucrose. Aqueous solutions of the compound of formula (I) diluted to a suitable range of concentrations were compared with a sucrose standard by an expert taste panel. Comparisons were generally made with aqueous sucrose solutions of 7-9%, i.e., 7-9 g. per 100 ml. Higher sucrose concentrations have a distinctive mouthfeel which may influence results and lower sucrose concentration are not indicative of normal use situations. If, for example a 0.014% solution of the compound of formula (I) is judged to be equally as sweet as a 7% sucrose solution, then the sweetness potency of that compound is 7/0.014 = 500 x sucrose. All of the sweetness potency values stated herein for the compounds of the invention were determined by this method. At threshold concentrations (i.e., the lowest concentration at which sweetness is first noticed, which for sucrose is ordinarily at concentrations in the range of 2-3%), the potency of a sweetener, such as the compounds of the invention, is generally twice that observed by comparison of its gustatory sweetness with 7-9% solutions of sucrose.

[3] = test system: taste panel; experiment: Taste panel evaluation of blends with sodium saccharin for taste acceptability and sweetness intensity against aqueous sucrose standards; format: in vivo; details: single components
Experimental: Blends of L-aspartyl-D-serine N-(2,2,4,4-tetra- methylthietan-3-yl)amide and sodium saccharin were prepared and evaluated for taste acceptability and sweetness intensity by comparison with aqueous sucrose standards.
The % synergy was calculated according to the following formula [formula] where A is the actual sweetness determined by averaging the taste panel results and T is the theoretical sweetness determined from the composition of the mixtures by weight e.g., for the 1:4 blend the theoretical sweetness is (1/5 x 1200) + (4/5 x 300) = 480.

In the case of CC1CCC1C(=O)OC[C@@H](C)NC(=O)[C@@H](N)CC(=O)O (some centres unmarked), the Sweetness potency [1] is given as 160 x sucrose.
In the case of C[C@H](COC(=O)C1CCC1)NC(=O)[C@@H](N)CC(=O)O, the Sweetness potency [1] is given as 220 x sucrose.
For C[C@H](COC(=O)C1CC1)NC(=O)[C@@H](N)CC(=O)O, the Sweetness potency [1] is listed as 200 x sucrose.
With CC1CCCC(C)C1NC(=O)[C@@H](CO)NC(=O)[C@@H](N)CC(=O)O (mixture of isomers) [Example 9, L-Aspartyl-D-serine N-(dl-cis,trans-2,6-dimethylcyclohexyl)amide] the Sweetness potency [2] was 200 x sucrose.
For N[C@@H](CC(=O)O)C(=O)N[C@H](CO)C(=O)NC(C1CC1)C1CC1 [Example 1, L-Aspartyl-D-serine N-(dicyclopropylcarbinyl)amide], the Sweetness potency [2] was 700 x sucrose.
Work on CC(C)C(NC(=O)[C@@H](CO)NC(=O)[C@@H](N)CC(=O)O)C(C)C [Example 2, L-Aspartyl-D-serine N-(2,4-dimethyl-3-pentyl)amide] yielded a Sweetness potency [2] of 180 x sucrose.
In the case of CC1(C)SC(C)(C)C1NC(=O)[C@@H](CO)NC(=O)[C@@H](N)CC(=O)O [Example 3, L-Aspartyl-D-serine N-(2,2,4,4-tetramethylthietan-3-yl)amide], the “Sweetness potency factors used to calculate the theoretical sweetness of the blends” value [3] is reported as 1200 x sucrose and the Sweetness potency [2] is reported as 1200 x sucrose.
For CC1(C)C(NC(=O)[C@@H](CO)NC(=O)[C@@H](N)CC(=O)O)C(C)(C)S1(=O)=O [Example 4, L-Aspartyl-D-serine N-(2,2,4,4-tetamethyl-1,1-dioxothietan-3-yl)amide], the Sweetness potency [2] was 850 x sucrose.
Compound COC[C@@H](NC(=O)[C@@H](N)CC(=O)O)C(=O)NC(C1CC1)C1CC1 [Example 6, L-Aspartyl-D-O-methylserine N-(dicyclopropylcarbinyl)amide] has a Sweetness potency [2] of 85 x sucrose.
COC[C@@H](NC(=O)[C@@H](N)CC(=O)O)C(=O)NC1C(C)(C)SC1(C)C [Example 7] showed a Sweetness potency [2] of 320 x sucrose.
COC[C@@H](NC(=O)[C@@H](N)CC(=O)O)C(=O)NC1C(C)(C)S(=O)(=O)C1(C)C [Example 8, L-Aspartyl-D-O-methylserine N-(2,2,4,4-tetramethyl-1,1-dioxothietan-3-yl)amide] gave a Sweetness potency [2] of 200 x sucrose.
For CC(C)OC(=O)[C@@H](C)NC(=O)[C@@H](N)CC(=O)O [L-aspartyl-D-alanine isopropyl ester] (H-Asp-[dA]-OiPr), the Sweetness potency [1] is listed as “up to 125 x sucrose”.
In the case of CCCOC(=O)[C@@H](CO)NC(=O)[C@@H](N)CC(=O)O [L-aspartyl-D-serine n-propyl ester], the “times as sweet as a 5% sucrose standard” value ([1]; 5% sucrose standard, Ariyoshi et al.) is given as 320 times.
For COC(=O)C(NC(=O)[C@@H](N)CC(=O)O)C(=O)OC1CCCCC1C (stereo partly drawn) [L-aspartylaminomalonic acid methyl 2-methylcyclohexyl diester], the Sweetness potency [1] is given as 6600 x sucrose.
For C[C@@H](NC(=O)[C@@H](N)CC(=O)O)C(=O)NC1CCCCC1 [cyclohexyl], the Sweetness potency [1] is given as 100 x sucrose.
In the case of CC(C)CNC(=O)[C@@H](C)NC(=O)[C@@H](N)CC(=O)O [isobutyl], the Sweetness potency [1] is given as 100 x sucrose.
For CCCCNC(=O)[C@@H](C)NC(=O)[C@@H](N)CC(=O)O [n-butvlamide] (H-Asp-[dA]-NHBu), the Sweetness potency [1] is given as 125 x sucrose.
For CCC(C)NC(=O)[C@@H](C)NC(=O)[C@@H](N)CC(=O)O (some centres unmarked) [secondary butyl], the Sweetness potency [1] is listed as 100 x sucrose.
With O=C1NS(=O)(=O)c2ccccc21.[Na] [sodium saccharin] the “Sweetness potency factors used to calculate the theoretical sweetness of the blends” value [3] was 300 x sucrose.
